“And” between values parts separate entries of the source, which are not always exact repeats. Equal entries are not always repeated.
Columns and labels:
[1] = test system: bovine cartilage explants; assay: Distribution kinetics / permeation of FITC-labeled polylysine into cartilage explants (fluorescence of cryostat sections); type: in vitro ADME; details: for time for permeation to achieve maximal levels (completed): FITC-labeled polymer, cartilage explants submerged in solution
Protocol: FIG. 2 is a set of photographs of bovine cartilage explants that were incubated with FITC-labeled polylysine (15-30 kDa in size, panels F, G, H, I, and J; and 30-70 kDa in size, panels K, L, M, N, and O) or control untreated cartilage (FIG. 2 panels A, B, C, D, and E). Photographs were taken at each of time points 0.5 hour (FIG. 2, panels A, F, and K), 1.0 hour (FIG. 2, panels B, G, and L), 3 hours (FIG. 2, panels C, H, and M), 7 hours (FIG. 2, panels D, I, and N) and 12 hours (FIG. 2, panels E, J, and O).
After a predetermined time, tissue was washed, frozen, and 10 micron sections were produced using a cryostat.

[2] = test system: rabbit lumbar intervertebral discs; assay: Effect of polylysine on disc height (disc height index, DHI) after injection into rabbit lumbar discs; type: in vivo; details: for L2/3 DHI, Average / L2/3 DHI: injected disc L2/3; for L2/3 DHI, Average / L4/5 DHI, Average: average of six animals; for L2/3 DHI, Average / L2/3 DHI / L4/5 DHI, Average / L4/5 DHI: untreated L3/4 disc = 100; for L2/3 DHI / L4/5 DHI: individual animals 1-6; for L4/5 DHI, Average / L4/5 DHI: injected disc L4/5
Protocol: FIG. 1 is a set of bar graphs showing intervertebral disc heights in rabbits injected with 30-70 kDa polylysine at each of lumbar 2/3 and 4/5, compared with heights of control untreated lumbar discs 3/4 (100%). Disc heights were measured at each of two weeks (FIG. 1, Panel A), four weeks (FIG. 1, Panel B), and six weeks (FIG. 1, Panel C). A decrease in the DHI of approximately 20% was maintained for 6 weeks in this study.
Statistical Analyses: Statistical analyses were performed by one way ANOVA with Fisher's PLSD test as a post hoc test.
Rabbit discs (six animals) were injected with 30-70 kDa polylysine into discs L4/5 and L2/3. As controls, the L3/4 discs were untreated in each of the animals.
Disc height was measured at each of 2, 4 and 6 weeks after injection, and the normalized percentages of starting disc heights observed are shown in FIG. 1. Disc height was reduced by the treatment to about 80% of the initial values, and the decrease of 20% was maintained for the full 6-week observation period.

polylysine [longer polymer]
time for permeation to achieve maximal levels (completed) [1]: 7 to 12 h

polylysine [shorter cationic polymer]
time for permeation to achieve maximal levels (completed) [1]: 3 to 7 h
rapidity of permeation of cartilage ([1]; compared to the longer chain length (30-70 kDa)): enhanced

polylysine [30-70 kDa polylysine]
L2/3 DHI, Average ([2]; 2 weeks after injection): 79.48%
L2/3 DHI ([2]; 2 weeks after injection): 77.13% and 68.43% and 70.29% and 91.98% and 80.01% and 89.04%
L4/5 DHI, Average ([2]; 2 weeks after injection): 78.67%
L4/5 DHI ([2]; 2 weeks after injection): 90.03% and 77.07% and 77.69% and 72.34% and 81.34% and 73.56%
L2/3 DHI, Average ([2]; 4 weeks after injection): 74.86%
L2/3 DHI ([2]; 4 weeks after injection): 79.11% and 93.42% and 80.98% and 66.08% and 63.83% and 65.74%
L4/5 DHI, Average ([2]; 4 weeks after injection): 79.65%
L4/5 DHI ([2]; 4 weeks after injection): 79.68% and 93.65% and 66.64% and 79.43% and 73.86% and 84.63%
L2/3 DHI, Average ([2]; 6 weeks after injection): 79.51%
L2/3 DHI ([2]; 6 weeks after injection): 78.77% and 93.30% and 96.63% and 65.59% and 73.66% and 69.09%
L4/5 DHI, Average ([2]; 6 weeks after injection): 81.57%
L4/5 DHI ([2]; 6 weeks after injection): 87.13% and 96.43% and 81.53% and 83.27% and 61.60% and 79.46%
disc height after treatment, of the initial values ([2]; rabbit discs L2/3 and L4/5, 2, 4 and 6 weeks after injection): about 80%

Reference: US20070258941A1, “Methods and compositions for remediation of disc herniation by modifying structure” (priority 2006, published 2007)
